# Results as given in PMC9120017, “Inhibition mechanism of the chloride channel TMEM16A by the pore blocker 1PBC” (Nature Communications, 2022).
# Biological target: T1, wild-type mouse TMEM16A (Mus musculus, UniProt Q8BHY3)
# T1 construct: expressed in transfected cells; host or cells: HEK293T
# T1 sequence (Q8BHY3 1-960): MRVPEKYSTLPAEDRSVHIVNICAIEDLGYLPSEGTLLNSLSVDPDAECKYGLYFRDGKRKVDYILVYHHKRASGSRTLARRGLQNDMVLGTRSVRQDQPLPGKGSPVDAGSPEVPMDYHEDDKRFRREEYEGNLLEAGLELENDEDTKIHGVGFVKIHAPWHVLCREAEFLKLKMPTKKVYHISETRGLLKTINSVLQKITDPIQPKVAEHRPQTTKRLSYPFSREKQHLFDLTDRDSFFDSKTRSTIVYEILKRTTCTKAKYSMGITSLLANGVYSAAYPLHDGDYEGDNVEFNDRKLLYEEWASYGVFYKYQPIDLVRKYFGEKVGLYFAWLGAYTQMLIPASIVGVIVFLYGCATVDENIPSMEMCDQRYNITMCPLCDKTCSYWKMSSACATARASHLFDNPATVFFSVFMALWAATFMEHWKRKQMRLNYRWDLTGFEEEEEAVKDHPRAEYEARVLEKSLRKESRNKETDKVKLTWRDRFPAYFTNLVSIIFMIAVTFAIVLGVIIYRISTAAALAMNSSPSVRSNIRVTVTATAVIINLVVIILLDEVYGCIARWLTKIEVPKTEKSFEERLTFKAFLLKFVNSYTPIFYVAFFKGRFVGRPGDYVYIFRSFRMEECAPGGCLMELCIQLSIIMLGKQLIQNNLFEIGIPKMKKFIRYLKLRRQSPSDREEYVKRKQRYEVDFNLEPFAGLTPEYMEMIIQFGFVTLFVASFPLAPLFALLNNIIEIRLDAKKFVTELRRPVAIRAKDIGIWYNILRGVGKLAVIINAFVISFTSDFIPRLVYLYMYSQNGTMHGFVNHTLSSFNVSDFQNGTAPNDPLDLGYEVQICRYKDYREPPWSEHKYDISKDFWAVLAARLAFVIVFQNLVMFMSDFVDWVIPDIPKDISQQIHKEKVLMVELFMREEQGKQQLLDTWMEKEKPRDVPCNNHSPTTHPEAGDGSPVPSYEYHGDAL
# Assay: Ultra-fast concentration-jump experiments, kinetics of 1PBC block in inside-out patches
# Assay type: cell-based
# Conditions: 3 µM 1PBC; excised patches, ultra-fast perfusion
# Protocol: HEK293T cells were transfected with 3–4 μg DNA per 6 cm Petri dish using the calcium phosphate co-precipitation method and were used within 24–96 h after transfection. Recordings were performed on inside-out patches excised from HEK293T cells expressing the construct of interest. Patch pipettes were pulled from borosilicate glass capillaries (O.D. 1.5 mm, I.D. 0.86 mm, Sutter Instrument) and were fire-polished with a microforge (Narishige) before use. Pipette resistance was typically 3–8 MΩ when filled with the recording solutions detailed below. Seal resistance was typically 4 GΩ or higher. Voltage-clamp recordings were made using Axopatch 200B, Digidata 1550, and Clampex 10.7 (Molecular Devices). Analog signals were filtered with the in-built 4-pole Bessel filter at 10 kHz and were digitized at 20 kHz. Solution exchange was achieved using a gravity-fed system through a theta glass pipette mounted on an ultra-fast piezo-driven stepper (Siskiyou). […] All recordings were performed at 20 °C.
# Supplementary Fig. 2: State dependence of 1PBC block. a, Kinetics of 1PBC block at an intermediate 1PBC concentration and the indicated sub- saturating Ca2+ concentrations in ultra-fast concentration- jump experiments at + 8 0 m V in the inside- out configuration. 1PBC was applied from the intracellular side. […] 6 µM (as determined in Fig. 2a, b) and kon = 1 x 106 M-1s-1. […]
structure (smiles),measurement,value
N#Cc1c(C(F)(F)F)cc(O)n2c1nc1ccccc12 [1PBC],Kinetics of block (time constant),~ 50 ms
